Drawing on BindingDB's records for PubMed 26804741 (Helmholtz Institute For Pharmaceutical Research Saarland …, 2016), this text covers IC50 for three molecules.

This test is described as follows: Inhibition of Pseudomonas aeruginosa LecB.

Structures are written as SMILES.

The IC50 is the midpoint of a concentration-inhibition curve. Low readings indicate greater potency in that assay, high ones weaker potency in that assay. `CC[C@H](C)[C@H](NC(=O)[C@H](Cc1cnc[nH]1)NCCCC[C@H](NC(=O)[C@@H](NC(=O)[C@H](CCCCN)NC(=O)[C@H](Cc1ccccc1)NC(=O)[C@H](CCCCNC(=O)[C@H](CC(C)C)NC(=O)[C@@H]1CCCN1C(=O)[C@@H](N)CCCCNC(=O)C[C@@H]1O[C@@H](C)[C@@H](O)[C@@H](O)[C@@H]1O)NC(=O)[C@H](CC(C)C)NC(=O)[C@@H]1CCCN1C(=O)[C@@H](N)CCCCNC(=O)C[C@@H]1O[C@@H](C)[C@@H](O)[C@@H](O)[C@@H]1O)[C@@H](C)CC)C(=O)N[C@H](C(=O)N[C@@H](CCCCN)C(=O)N[C@@H](Cc1ccccc1)C(=O)N[C@@H](CCCCN[C@@H](CC(C)C)C(=O)N1CCC[C@H]1C(=O)N[C@@H](CCCCNC(=O)C[C@@H]1O[C@@H](C)[C@@H](C)[C@@H](C)[C@@H]1O)C(=O)O)C(=O)N[C@@H](CC(C)C)C(=O)N1CCC[C@H]1C(=O)N[C@@H](CCCCNC(=O)C[C@@H]1O[C@@H](C)[C@@H](O)[C@@H](O)[C@@H]1O)C(=O)O)[C@@H](C)CC)C(N)=O` came in with a 50% inhibitory concentration (IC50) of 0.14 µM.

`CO[C@H]1O[C@H]([C@@H](O)CNS(=O)(=O)c2c(C)cc(C)cc2C)[C@@H](O)[C@H](O)[C@@H]1O` showed an IC50 of 100 µM.

Molecule `CCCCCCCCO[C@@H]1O[C@H](CO)[C@H](O[C@@H]2O[C@H](CO)[C@H](O)[C@H](O)[C@H]2NC(C)=O)[C@H](O)[C@H]1OCCC` gave an IC50 of 8 µM.
